US10538561B2, “Peptide for treating inflammatory diseases” (priority 2015, dated 2020)
Like-named read-outs stand apart in the source and are kept apart here.

Experiments:
Caspase-3 enzyme = test: Caspase-3 assay; format: cell-based, Human; conditions: HaCaT, 0.1 μM
Procedure: Cell lines: Human Keratinocytes (HaCaT); Test Item (TI): IS 181; Treatment regimen: Multiple additions (2)—48 hours; Concentration range: 100 μg/ml to 5000 μg/ml (Duplicate wells); Sera Condition: Medium containing 1% FBS. […] Cells were lysed and protein was estimated. The above lysates were processed further for Caspase-3 enzyme activity assay using colorimetric based method. Percentage induction of Caspase-3 enzyme activation with respect to untreated; Positive control: Anthralin. IS 181 led to induction of Caspase-3 enzyme activation in HaCaT cells at all the concentrations tested except at 100 μg/ml. […] (FIGS. 7A-7B)

[1] = system: Human Keratinocytes (HaCaT); test: DNA fragmentation assay in HaCaT; format: cell-based
Procedure: Cells were lysed and fragmented DNA was precipitated using PEG/NaCl solution. The fragmented DNA was incubated with 0.2 μg/ml of Hoechst 33258 dye and fluorescence was read at 360 ex/460 em. End point: Percentage induction of DNA fragmentation with respect to untreated Positive control. Anthralin. IS 181 led to induction of DNA fragmentation in HaCaT cells at all the concentrations tested except at 100 μg/ml. […] The overall effect of IS 181 on induction of DNA fragmentation with respect to untreated in HaCaT cells ranged from −18.8% to 83.3%. (FIG. 8 and Table-6).

[2] = system: Human endothelial cells (EA.hy 926); test: Inhibition of FBS stimulated endothelial cell proliferation (MTT); format: cell-based
Procedure: Cell line: Human endothelial cells (EA.hy 926); test item: IS 181: treatment regimen: multiple additions (3)-72 hours; concentration range: 1 6 g/ml to 5000 6 g/ml (triplicate wells); sera condition: medium containing 10% FBS. […] The cells were then subjected to complete serum starvation. The cells were retreated with 10% FBS to stimulate cellular proliferation. […] Inhibition of FBS stimulated cell proliferation was measured using MTT assay. End point: percentage inhibition of FBS stimulated cell proliferation. Positive controls: anthralin; paclitaxel.

[3] = system: Human endothelial cells (EA.hy 926); test: DNA fragmentation in endothelial cells; format: cell-based
Procedure: Cell lines: Human endothelial cells (EA.Hy 926); test item: IS 181; treatment regimen: multiple additions (2)—48 hours; concentration range: 100 μg/ml to 5000 μg/ml (Duplicate wells); sera condition: medium containing 1% FBS. […] Cells were lysed and fragmented DNA was precipitated using PEG/NaCl solution. The fragmented DNA was incubated with 0.2 μg/ml of Hoechst 33258 dye and fluorescence was read at 360 ex/460 em. End point: Percentage induction of DNA fragmentation with respect to untreated. Positive control: anthralin. IS 181 led to induction of DNA fragmentation in Ea.hy.926 cells at all the concentrations tested. […] The overall effect of IS 181 on induction of DNA fragmentation with respect to untreated in Ea.hy.926 cells ranged from 15.09% to 64.15% (FIGS. 10A-10B and Table-10).

[4] = In vitro combination Anthralin and IS 181 (MTT); format: cell-based, Human; conditions: human, HaCaT keratinocytes, read-out: percent inhibition of cell viability/cytotoxicity
Procedure: (§1) Percentage cytotoxicity was determined using MTT assay.

[5] = system: Human Keratinocytes (HaCaT); test: In vitro combination Anthralin and IS 181 (MTT); format: cell-based; conditions: Homo sapiens, 72 h, read-out: IC 50 value of Anthralin
Procedure: as §1

O=C1c2c(O)cccc2Cc2cccc(O)c21 [Anthralin, reference compound]
Percentage induction of caspase-3 enzyme activation with respect to untreated (Caspase-3 enzyme): 101.85 | % induction of DNA fragmentation ([1]; 0.1 μM): 60.42% | % induction of DNA fragmentation ([1]; 0.5 μM): 168.75% | Absorbance (Mean ± SD) at 540 nm ([2]; EA.hy926, 0.01 μM): 0.46 ± 0.025 | Absorbance (Mean ± SD) at 540 nm ([2]; EA.hy926, 0.1 μM): 0.45 ± 0.018 | Absorbance (Mean ± SD) at 540 nm ([2]; EA.hy926, 0.5 μM): 0.42 ± 0.013 | inhibition at 0.01 µM ([2]; Homo sapiens, EA.hy 926, EA.hy926, 0.01 μM, read-out: ¾ Inhibition of FBS stimulated cell growth): 7.21% | inhibition at 0.1 µM ([2]; Homo sapiens, EA.hy 926, EA.hy926, 0.1 μM, read-out: ¾ Inhibition of FBS stimulated cell growth): 14.6% | inhibition at 0.5 µM ([2]; Homo sapiens, EA.hy 926, EA.hy926, 0.5 μM, read-out: ¾ Inhibition of FBS stimulated cell growth): 20.4% | % induction of DNA fragmentation ([3]; EA.hy926, 0.1 μM): 3.77% | % induction of DNA fragmentation ([3]; EA.hy926, 0.5 μM): 13.21% | cytotoxicity at 72 h, 0.01 µM ([4]; Anthralin 0.01 μM alone): 0.75% | cytotoxicity at 72 h, 0.05 µM ([4]; Anthralin 0.05 μM alone): -2.45% | cytotoxicity at 72 h, 0.1 µM ([4]; Anthralin 0.1 μM alone): 9.41% | cytotoxicity at 72 h, 0.5 µM ([4]; Anthralin 0.5 μM alone): 41.3% | cytotoxicity at 72 h, 1 µM ([4]; Anthralin 1 μM alone): 78.9% | cytotoxicity at 72 h, 5 µM ([4]; Anthralin 5 μM alone): 87.9% | IC50 ([5]; IS 181 0 μg/ml): 558 nM | IC50 ([5]; with IS 181 10 μg/ml): 628 nM | IC50 ([5]; with IS 181 50 μg/ml): 584 nM | IC50 ([5]; with IS 181 100 μg/ml): 522 nM | IC50 ([5]; with IS 181 500 μg/ml): 97.3 nM | IC50 ([5]; with IS 181 1000 μg/ml): 27.1 nM | IC50 ([5]; with IS 181 2000 μg/ml): 0.1 nM
